Assay: Mouse Liver Microsome stability assay
Type: in vitro ADME
Conditions: mouse liver microsomes

Row | SMILES | WuXi Microsomal stability (Mouse Extraction Ratio)
1 | CN(C)c1ccc(-c2ccccc2)cc1Nc1ncnc2[nH]nc(-c3cc[nH]n3)c12 [compound 8164] | 0.9
2 | COc1ncc(-c2ccccc2)cc1Nc1ncnc2[nH]nc(-c3cc[nH]n3)c12 [compound 8177] | 0.8
